IC50 data for one compound are collected here from publication PMC7069796 (Breast cancer research and treatment, 2020).

The target in this experiment is T1, Estrogen Receptor Alpha (ERα) (Homo sapiens, UniProt P03372, Y537S).
T1 sequence (P03372 282-595 Y537S): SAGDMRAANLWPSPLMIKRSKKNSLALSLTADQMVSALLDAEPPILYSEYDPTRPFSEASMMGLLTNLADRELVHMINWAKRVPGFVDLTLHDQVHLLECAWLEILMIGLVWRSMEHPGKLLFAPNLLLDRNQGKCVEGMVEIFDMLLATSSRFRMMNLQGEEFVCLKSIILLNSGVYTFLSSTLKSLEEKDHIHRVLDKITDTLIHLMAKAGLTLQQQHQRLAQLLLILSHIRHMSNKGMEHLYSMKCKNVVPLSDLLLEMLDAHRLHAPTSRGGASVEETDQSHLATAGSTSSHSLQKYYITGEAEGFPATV
Nature of the experiment: LanthaScreen TR-FRET competitive binding assay with purified GST-ERα LBD. Background: In TR-FRET formats the signal depends on donor and acceptor labels being close together.

`CCC(=C(c1ccc(/C=C/C(=O)O)cc1)c1ccc(B(O)O)cc1)c1ccccc1` [GLL398] displayed an IC50 of 29.5 nM.

As usually defined, the IC50 is the concentration that inhibits the measured activity by half. Lower therefore signals greater potency in that assay.
